Like-named read-outs stand apart in the source and are kept apart here.
Test system: SARS-CoV-2 strain USA-WA1/2020
Assay: microbe, parasite or virus in culture
Format: cell-based
Conditions: Severe acute respiratory syndrome coronavirus 2, HeLa-ACE2, 24 h, read-out: EC50, uM (Hela)
[1] = HeLa-ACE2 cells, SARS-CoV-2 infection, 24 h, class symbols
[2] = HeLa-ACE2 cells, SARS-CoV-2 infection, 24 h, cells given as a bound

SMILES | EC50 [1] | also measured
Cc1cc(C(=O)N[C@H](C(=O)N[C@@H](CC(C)C)C(=O)N[C@@H](C[C@@H]2CCNC2=O)C(=O)COc2c(F)c(F)cc(F)c2F)C(C)(C)C)no1 [Compound 118, N-((S)-3,3-dimethyl-1-(((S)-4-methyl-1-oxo-1-(((S)-3-oxo-1-((S)-2-oxopyrrolidin-3-yl)-4-(2,3,5,6-tetrafluorophenoxy)butan-2-yl)amino)pentan-2-yl)amino)-1-oxobutan-2-yl)-5-methylisoxazole-3-carboxamide] | 0.2 to 0.5 µM | –
CC(C)(C)[C@H](NC(=O)C(=O)Nc1ccccc1F)C(=O)N[C@@H](C[C@@H]1CCNC1=O)C(=O)COc1c(F)c(F)cc(F)c1F [Compound 119, N1-((S)-3,3-dimethyl-1-oxo-1-(((S)-3-oxo-1-((S)-2-oxopyrrolidin-3-yl)-4-(2,3,5,6-tetrafluorophenoxy)butan-2-yl)amino)butan-2-yl)-N2-(2-fluorophenyl)oxalamide] | 0.2 to 0.5 µM | –
COc1cccc(NC(=O)C(=O)N[C@@H](CC(C)C)C(=O)N[C@@H](C[C@@H]2CCNC2=O)C(=O)COc2c(F)c(F)cc(F)c2F)c1 [Compound 120, N1-(3-methoxyphenyl)-N2-((S)-4-methyl-1-oxo-1-(((S)-3-oxo-1-((S)-2-oxopyrrolidin-3-yl)-4-(2,3,5,6-tetrafluorophenoxy)butan-2-yl)amino)pentan-2-yl)oxalamide] | < 0.05 µM | –
COc1ccc(NC(=O)C(=O)N[C@@H](CC(C)C)C(=O)N[C@@H](C[C@@H]2CCNC2=O)C(=O)COc2c(F)c(F)cc(F)c2F)cc1 [Compound 121, N1-(4-methoxyphenyl)-N2-((S)-4-methyl-1-oxo-1-(((S)-3-oxo-1-((S)-2-oxopyrrolidin-3-yl)-4-(2,3,5,6-tetrafluorophenoxy)butan-2-yl)amino)pentan-2-yl)oxalamide] | < 0.05 µM | –
CC(C)C[C@H](NC(=O)C(=O)Nc1ccccc1)C(=O)N[C@@H](C[C@@H]1CCNC1=O)C(=O)COC(F)(F)F [Compound 122, N1-((S)-4-methyl-1-oxo-1-(((S)-3-oxo-1-((S)-2-oxopyrrolidin-3-yl)-4-(trifluoromethoxy)butan-2-yl)amino)pentan-2-yl)-N2-phenyloxalamide] | < 0.05 µM | –
CC(C)C[C@H](NC(=O)C(=O)Nc1ccccc1F)C(=O)N[C@@H](CCC(=O)N(C)C)C(=O)COc1c(F)c(F)cc(F)c1F [Compound 123, N1-((S)-1-(((S)-6-(dimethylamino)-2,6-dioxo-1-(2,3,5,6-tetrafluorophenoxy)-hexan-3-yl)amino)-4-methyl-1-oxopentan-2-yl)-N2-(2-fluorophenyl)oxalamide] | 0.05 to 0.2 µM | –
CC(C)C[C@H](NC(=O)C(=O)NC1CCC1)C(=O)N[C@@H](C[C@@H]1CCNC1=O)C(=O)COc1c(F)c(F)cc(F)c1F [Compound 124, N1-cyclobutyl-N2-((S)-4-methyl-1-oxo-1-(((S)-3-oxo-1-((S)-2-oxopyrrolidin-3-yl)-4-(2,3,5,6-tetrafluorophenoxy)butan-2-yl)amino)pentan-2-yl)oxalamide] | 0.05 to 0.2 µM | –
CC(C)C[C@H](NC(=O)C(=O)Nc1ccccc1F)C(=O)N[C@@H](C[C@@H]1CCNC1=O)C(=O)COP(=O)(c1ccccc1)c1ccccc1 [Compound 125, (S)-3-((S)-2-(2-((2-fluorophenyl)amino)-2-oxoacetamido)-4-methylpentanamido)-2-oxo-4-((S)-2-oxopyrrolidin-3-yl)butyl diphenylphosphinate] | – | EC50: < 0.05 µM
CC(C)C[C@H](NC(=O)O[C@@H]1CCOC1)C(=O)N[C@@H](C[C@@H]1CCNC1=O)C(=O)COc1c(F)c(F)cc(F)c1F [Compound 126, (R)-tetrahydrofuran-3-yl ((S)-4-methyl-1-oxo-1-(((S)-3-oxo-1-((S)-2-oxopyrrolidin-3-yl)-4-(2,3,5,6-tetrafluorophenoxy)butan-2-yl)amino)pentan-2-yl)carbamate] | – | EC50 [2]: > 1 µM
CC(C)C[C@H](NC(=O)O[C@H]1CCOC1)C(=O)N[C@@H](C[C@@H]1CCNC1=O)C(=O)COc1c(F)c(F)cc(F)c1F [Compound 127, (S)-tetrahydrofuran-3-yl ((S)-4-methyl-1-oxo-1-(((S)-3-oxo-1-((S)-2-oxopyrrolidin-3-yl)-4-(2,3,5,6-tetrafluorophenoxy)butan-2-yl)amino)pentan-2-yl)carbamate] | 0.5 to 1 µM | –
CC(C)C[C@H](NC(=O)OCCCc1cccc(Cl)c1)C(=O)N[C@@H](C[C@@H]1CCNC1=O)C(=O)COc1c(F)c(F)cc(F)c1F [Compound 128, 3-(3-chlorophenyl)propyl ((S)-4-methyl-1-oxo-1-(((S)-3-oxo-1-((S)-2-oxopyrrolidin-3-yl)-4-(2,3,5,6-tetrafluorophenoxy)butan-2-yl)amino)pentan-2-yl)carbamate] | – | EC50 [2]: > 1 µM
CC(C)C[C@H](NC(=O)C(=O)Nc1ccccc1F)C(=O)N[C@@H](C[C@@H]1CCCNC1=O)C(=O)COc1c(F)c(F)cc(F)c1F [Compound 129, N1-(2-fluorophenyl)-N2-((S)-4-methyl-1-oxo-1-(((S)-3-oxo-1-((S)-2-oxopiperidin-3-yl)-4-(2,3,5,6-tetrafluorophenoxy)butan-2-yl)amino)pentan-2-yl)oxalamide] | < 0.05 µM | –
CC(C)(C)C[C@H](NC(=O)C(=O)Nc1ccccc1F)C(=O)N[C@@H](C[C@@H]1CCNC1=O)C(=O)COc1c(F)c(F)cc(F)c1F [Compound 130, N1-((S)-4,4-dimethyl-1-oxo-1-(((S)-3-oxo-1-((S)-2-oxopyrrolidin-3-yl)-4-(2,3,5,6-tetrafluorophenoxy)butan-2-yl)amino)pentan-2-yl)-N2-(2-fluorophenyl)oxalamide] | < 0.05 µM | –
CC(C)C[C@H](NC(=O)C(=O)Nc1ccccc1F)C(=O)N[C@@H](C[C@@H]1CCNC1=O)C(=O)COc1c(F)cc(F)cc1F [Compound 131, N1-(2-fluorophenyl)-N2-((S)-4-methyl-1-oxo-1-(((S)-3-oxo-1-((S)-2-oxopyrrolidin-3-yl)-4-(2,4,6-trifluorophenoxy)butan-2-yl)amino)pentan-2-yl)oxalamide] | 0.2 to 0.5 µM | –
CC(C)C[C@H](NC(=O)C(=O)Nc1ccccc1F)C(=O)N[C@@H](C[C@@H]1CCNC1=O)C(=O)COc1c(F)ccc(F)c1F [Compound 132, N1-(2-fluorophenyl)-N2-((S)-4-methyl-1-oxo-1-(((S)-3-oxo-1-((S)-2-oxopyrrolidin-3-yl)-4-(2,3,6-trifluorophenoxy)butan-2-yl)amino)pentan-2-yl)oxalamide] | 0.05 to 0.2 µM | –
CC(C)C[C@H](NC(=O)C(=O)N[C@@H]1CCCOC1)C(=O)N[C@@H](C[C@@H]1CCNC1=O)C(=O)COc1c(F)c(F)cc(F)c1F [Compound 133, N1-((S)-4-methyl-1-oxo-1-(((S)-3-oxo-1-((S)-2-oxopyrrolidin-3-yl)-4-(2,3,5,6-tetrafluorophenoxy)butan-2-yl)amino)pentan-2-yl)-N2-((R)-tetrahydro-2H-pyran-3-yl)oxalamide] | 0.05 to 0.2 µM | –
O=C(Nc1ccccc1Cl)C(=O)NC(CC1CCOCC1)C(=O)N[C@@H](C[C@@H]1CCNC1=O)C(=O)COc1c(F)c(F)cc(F)c1F (stereo partly drawn) [Compound 134, N1-(2-chlorophenyl)-N2-(1-oxo-1-(((S)-3-oxo-1-((S)-2-oxopyrrolidin-3-yl)-4-(2,3,5,6-tetrafluorophenoxy)butan-2-yl)amino)-3-(tetrahydro-2H-pyran-4-yl)propan-2-yl)oxalamide] | < 0.05 µM | –

From patent US11708348B2, “Protease inhibitors for treatment of coronavirus infections” (The Scripps Research Institute, priority 2021, dated 2023)
